Test results reported in patent US20180236105A1, “METHODS FOR TREATING NEURODEGENERATIVE DISEASES USING GENE THERAPY TO DELAY DISEASE ONSET AND PROGRESSION WHILE PROVIDING COGNITIVE PROTECTION” (UNIVERSITY OF IOWA RESEARCH FOUNDATION, priority 2015, published 2018).

Key:
[1] = tested on: Cln2−/− mouse embryo fibroblast cells; assay: caTPP1 neutralization antibody assay (NAbs in dog CSF/serum); assay type: cell-based
Procedure: To assess neutralizing Abs (Nabs) in CSF, Cln2−/− mouse embryo fibroblast cells were used. Sixteen hours before the assay, 1.0×10^5 cells/well were plated onto 24 wells plate the day before, and dog CSF was heat inactivated at 56° C. for 30 minutes, diluted 1:10, and then pre-incubated with 1.75 nM of TPP1 at 37° C. for one hour. The mixture was applied to cells for three hours at 37° C. after which the cells were washed with 37° C. HBSS (Ca^2+ and Mg^2+) and then homogenized in 100 μl of ice cold homogenization buffer-0.1% TritonX-100 in normal saline with complete protease inhibitor cocktail (Roche, Mannheim, Germany). Insoluble material was removed by centrifugation at 21×10^3 rcf at 4° C. for 10 minutes and TPP1 activity detected as described above. The results were calculated as percentage of activity obtained from CSF collected prior to vector administration.

CLN2−/− dogs = assay: Cerebrospinal fluid TPP1 enzyme activity assay; assay type: in vivo, dog; details: for CSF TPP1 activity after introduction of MMF: with cyclosporine and rAAV.caTPP1
Source text: Long-haired miniature Dachshunds were bred and housed at the University of Missouri in facilities overseen by the Office of Animal Resources (OAR). TPP1-null animals were generated from heterozygous breeding (Awano, 2006). All puppies were genotyped by PCR. In addition to the standard care provided by the OAR, the dogs were socialized on a daily basis throughout the study. All procedures involving dogs were reviewed and approved by the University of Missouri Animal Care and Use Committee and conformed to the National Institutes of Health Guide for the Care and Use of Laboratory Animals. Intraventricular infusions were performed over 25 minutes using the Brainsight™ neuronavigation system equipped with a 26 gauge 12 cm needle. Cyclosporine 10 mg/kg twice daily by mouth was administered to all of the dogs in this study starting one to two weeks prior to the gene therapy vector administration. The dose was gradually tapered after 2 months to once daily, which was continued for the duration of the study. A 10-20 mg/kg daily dose by mouth of mycophenolate mofetil (MMF) was instituted, as indicated in the results, and tapered after 2 to several months depending on tolerability.
TPP1 activity was assayed via a modification of previously described methods (Chang et al., 2008; Tian et al., 2006). Samples were homogenized in 300 μl ice-cold homogenization buffer (0.1% Triton X-100 in normal saline with complete protease inhibitor cocktail, Roche, Mannheim, Germany). Insoluble material was removed by centrifugation at 21×10^3 rcf at 4° C.×15 minutes, and protein quantified by DC Protein Assay (Biorad, Hercules, Calif.). […] Plates were read in a Safire 2 microplate reader (Tecan., Mannedorf, Switzerland) at 37° C. using the 460-nm emission filter. […]
Samples were concentrated 3.5-fold using Amicon Ultra-0.5 Centrifugal filter (Ultracel-10K. Millipore Corporation) at 21×10^3 rcf for 5 minutes at 4° C. Activated TPP1 was quantified as in tissue samples.

dog disease model = details: cited from earlier work
[2] = MMF 5 days prior to rAAV.caTPP1 delivery, DC018

| Molecule | anti-TPP1 antibodies [1, 2] | anti-TPP1 immune responses ([1]; MMF at the time of or before AAV delivery) | anti-TPP1 Ab titers ([1]; MMF by 33 days post-vector, with cyclosporine and rAAV.caTPP1) | CSF TPP1 activity (CLN2−/− dogs; [2]) | CSF TPP1 activity after introduction of MMF (CLN2−/− dogs; MMF by 33 days post-vector, DC015, DC016) | CSF TPP1 activity after introduction of MMF (CLN2−/− dogs; MMF from 44 days post-vector, DC013, DC014) | anaphylactic reactions (dog disease model; bolus infusion) | immune responses to recombinant protein (dog disease model; infused into the lumbar subarachnoid space or lateral ventricle) |
| --- | --- | --- | --- | --- | --- | --- | --- | --- |
| COc1c(C)c2c(c(O)c1C/C=C(\C)CCC(=O)OCCN1CCOCC1)C(=O)OC2 [MMF, mycophenolate mofetil] | did not appear | reduced, inhibited or dramatically delayed | reduction in anti-TPP1 Ab titers | robust and sustained | increase in CSF TPP1 activity | did not result in a recovery of TPP1 activity |  |  |
| recombinant human TPP1: recombinant human TPP1 infused into the lumbar subarachnoid space or lateral ventricle (Vuillemenot et al., 2015) (protein, UniProt O14773 196-563, looked up) Tripeptidyl-peptidase 1: LHLGVTPSVIRKRYNLTSQDVGSGTSNNSQACAQFLEQYFHDSDLAQFMRLFGGNFAHQASVARVVGQQGRGRAGIEASLDVQYLMSAGANISTWVYSSPGRHEGQEPFLQWLMLLSNESALPHVHTVSYGDDEDSLSSAYIQRVNTELMKAAARGLTLLFASGDSGAGCWSVSGRHQFRPTFPASSPYVTTVGGTSFQEPFLITNEIVDYISGGGFSNVFPRPSYQEEAVTKFLSSSPHLPPSSYFNASGRAYPDVAALSDGYWVVSNRVPIPWVSGTSASTPVFGGILSLINEHRILSGRPPLGFLNPRLYQQHGAGLFDVTRGCHESCLDEEVEGQGFCSGPGWDPVTGWGTPNFPALLKTLLNP |  |  |  |  |  |  | Anaphylactic reactions were noted | robust anti-TPP1 responses |
